US8901130B2, “Low hygroscopic aripiprazole drug substance and processes for the preparation” (Ostuka Pharmaceutical Co., Ltd., priority 2001, dated 2014)

Experiment: Hygroscopicity test (60° C./100% RH, 24 hours, Karl Fischer water content)
Type: physicochemical
Conditions: for Moisture Content After 24 hrs (%): 24 hours in dessicator at humidity 100%; for Moisture Content After 24 hrs (%) / hygroscopicity (water content after exposure): temperature 60° C.; for Initial Moisture Content (%): before exposure to 60° C./100% humidity; for hygroscopicity (water content after exposure): left for 24 hours in a dessicator set at humidity 100%
Procedure: (7) Hygroscopicity Test Method
One g of the sample was accurately weighed, in a weighing bottle (diameter 5 cm), covered with kimwipes and left to rest in a 60° C./100% RH environment (water/dessicator). 24 hours later, the weighing bottle was removed, transferred to an environment of a room temperature and about 30% RH (magnesium chloride hexahydrate saturated water solution/dessicator) and left, to rest for 24 hours and the water content of the sample was measured by the Karl Fischer method.

For `O=C1CCc2ccc(OCCCCN3CCN(c4cccc(Cl)c4Cl)CC3)cc2N1` [Reference Example 1, aripiprazole], the “Moisture Content After 24 hrs (%)” value was 3.28%, the “Initial Moisture Content (%)” value was 0.04% and the “hygroscopicity (water content after exposure)” value (from here on “hygroscopicity”) was 3.28%.

For `O=C1CCc2ccc(OCCCCN3CCN(c4cccc(Cl)c4Cl)CC3)cc2N1` [Example 8, aripiprazole], the “Moisture Content After 24 hrs (%)” value was 0.03%, the “Initial Moisture Content (%)” value was 0.04% and the “hygroscopicity” value was at most 0.4%.

With `O=C1CCc2ccc(OCCCCN3CCN(c4cccc(Cl)c4Cl)CC3)cc2N1` [Example 4, aripiprazole] the “Moisture Content After 24 hrs (%)” value was 0.02%, the “Initial Moisture Content (%)” value was 0.02% and the “hygroscopicity” value was at most 0.4%.

In the case of `O=C1CCc2ccc(OCCCCN3CCN(c4cccc(Cl)c4Cl)CC3)cc2N1` [Example 7, aripiprazole], the “Moisture Content After 24 hrs (%)” value is reported as 0.03%, the “Initial Moisture Content (%)” value is reported as 0.04% and the “hygroscopicity” value is reported as at most 0.4%.

In the case of `O=C1CCc2ccc(OCCCCN3CCN(c4cccc(Cl)c4Cl)CC3)cc2N1` [Example 2, aripiprazole], the “Moisture Content After 24 hrs (%)” value is reported as 0.04%, the “Initial Moisture Content (%)” value is reported as 0.04% and the “hygroscopicity” value is reported as at most 0.4%.

For `O=C1CCc2ccc(OCCCCN3CCN(c4cccc(Cl)c4Cl)CC3)cc2N1` [Example 15, aripiprazole], the “Moisture Content After 24 hrs (%)” value was 0.04%, the “Initial Moisture Content (%)” value was 0.04% and the “hygroscopicity” value was at most 0.4%.

For `O=C1CCc2ccc(OCCCCN3CCN(c4cccc(Cl)c4Cl)CC3)cc2N1` [Reference Example 2, aripiprazole], the “Moisture Content After 24 hrs (%)” value was 1.78%, the “Initial Moisture Content (%)” value was 0.04% and the “hygroscopicity” value was 1.78%.

With `O=C1CCc2ccc(OCCCCN3CCN(c4cccc(Cl)c4Cl)CC3)cc2N1` [Example 3, aripiprazole] the “Moisture Content After 24 hrs (%)” value was 0.02%, the “Initial Moisture Content (%)” value was 0.02% and the “hygroscopicity” value was at most 0.4%.

With `O=C1CCc2ccc(OCCCCN3CCN(c4cccc(Cl)c4Cl)CC3)cc2N1` [Example 6, aripiprazole] the “Moisture Content After 24 hrs (%)” value was 0.04%, the “Initial Moisture Content (%)” value was 0.04% and the “hygroscopicity” value was at most 0.4%.

With `O=C1CCc2ccc(OCCCCN3CCN(c4cccc(Cl)c4Cl)CC3)cc2N1` [Example 10, aripiprazole] the “Moisture Content After 24 hrs (%)” value was 0.05%, the “Initial Moisture Content (%)” value was 0.05% and the “hygroscopicity” value was “no more than 0.4%”.

In the case of `O=C1CCc2ccc(OCCCCN3CCN(c4cccc(Cl)c4Cl)CC3)cc2N1` [Anhydrous Aripiprazole Crystals B, aripiprazole], the “hygroscopicity” value is reported as at most 0.4%.

For `O=C1CCc2ccc(OCCCCN3CCN(c4cccc(Cl)c4Cl)CC3)cc2N1` [Example 13, aripiprazole], the “Moisture Content After 24 hrs (%)” value was 0.03%, the “Initial Moisture Content (%)” value was 0.04% and the “hygroscopicity” value was at most 0.4%.

For `O=C1CCc2ccc(OCCCCN3CCN(c4cccc(Cl)c4Cl)CC3)cc2N1` [Example 12, aripiprazole], the “Moisture Content After 24 hrs (%)” value was 0.03%, the “Initial Moisture Content (%)” value was 0.04% and the “hygroscopicity” value was at most 0.4%.

In the case of `O=C1CCc2ccc(OCCCCN3CCN(c4cccc(Cl)c4Cl)CC3)cc2N1` [Example 9, aripiprazole], the “Moisture Content After 24 hrs (%)” value is reported as 0.01%, the “Initial Moisture Content (%)” value is reported as 0.03% and the “hygroscopicity” value is reported as at most 0.4%.

In the case of `O=C1CCc2ccc(OCCCCN3CCN(c4cccc(Cl)c4Cl)CC3)cc2N1` [Example 14, aripiprazole], the “Moisture Content After 24 hrs (%)” value is reported as 0.09%, the “Initial Moisture Content (%)” value is reported as 0.06% and the “hygroscopicity” value is reported as at most 0.4%.

With `O=C1CCc2ccc(OCCCCN3CCN(c4cccc(Cl)c4Cl)CC3)cc2N1` [Example 11, aripiprazole] the “Moisture Content After 24 hrs (%)” value was 0.03%, the “Initial Moisture Content (%)” value was 0.03% and the “hygroscopicity” value was at most 0.4%.

For `O=C1CCc2ccc(OCCCCN3CCN(c4cccc(Cl)c4Cl)CC3)cc2N1` [Example 5, aripiprazole], the “Moisture Content After 24 hrs (%)” value was 0.04%, the “Initial Moisture Content (%)” value was 0.04% and the “hygroscopicity” value was at most 0.4%.
